Laboratory results taken from US20120202754A1 (priority 2009, published 2012).

What follows are substances tested against BoNT A light chain (BoNT A Lc) (Clostridium botulinum, UniProt P0DPI0).
Type: biochemical

BoNT A light chain (BoNT A Lc), sequence (P0DPI0 2-448 limits assumed): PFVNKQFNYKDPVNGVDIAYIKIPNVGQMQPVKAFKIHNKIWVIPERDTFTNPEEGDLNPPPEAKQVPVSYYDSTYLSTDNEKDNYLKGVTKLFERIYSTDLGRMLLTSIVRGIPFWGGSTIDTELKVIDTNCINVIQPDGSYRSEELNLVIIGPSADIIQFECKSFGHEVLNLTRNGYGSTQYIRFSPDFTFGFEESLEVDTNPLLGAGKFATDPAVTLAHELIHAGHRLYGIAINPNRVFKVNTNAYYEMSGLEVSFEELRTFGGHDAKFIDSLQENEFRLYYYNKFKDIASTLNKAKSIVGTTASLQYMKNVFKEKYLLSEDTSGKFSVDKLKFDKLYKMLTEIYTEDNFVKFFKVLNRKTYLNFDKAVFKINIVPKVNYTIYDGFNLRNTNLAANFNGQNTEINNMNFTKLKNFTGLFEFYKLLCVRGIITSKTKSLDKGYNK

| Substance | effect of substitution or truncation on hydrolysis rate (in words) |
| --- | --- |
| S N K V R I D Q A N Q R A T K M L [Peptide P3] | further enhanced the rate |
| S N R V R I D Q A N Q R A T R M L [Peptide P4] | had no effect |
| N R V R I D A A N Q R A T R M [Peptide P5] | enhanced cleavage velocity |
| V R I D A A N Q R A T R M [Peptide P7] | decreased the hydrolysis rate significantly |
